Source: publication PMC9967118, “Influence of Mutations of Conserved Arginines on Neuropeptide Binding in the DPP III Active Site” (Molecules, 2023)
Substitutions are numbered along the chain they refer to. Read-outs that look alike come from different tables or passages of the source. Blank lines part the entries; values can stand above or below the molecule they belong to. Where no end group is shown, it is not given here.

What was measured:
Human DPP3 variant R669M [1] = target: T1, Human DPP3 variant R669M (Homo sapiens, UniProt Q9NY33, R669M); test: Inhibition of DPP III catalyzed hydrolysis of Arg2-2NA, R669M variant; format: biochemical
T1 construct: made in house; host or cells: E. coli
T1 sequence (Q9NY33 1-737 R669M): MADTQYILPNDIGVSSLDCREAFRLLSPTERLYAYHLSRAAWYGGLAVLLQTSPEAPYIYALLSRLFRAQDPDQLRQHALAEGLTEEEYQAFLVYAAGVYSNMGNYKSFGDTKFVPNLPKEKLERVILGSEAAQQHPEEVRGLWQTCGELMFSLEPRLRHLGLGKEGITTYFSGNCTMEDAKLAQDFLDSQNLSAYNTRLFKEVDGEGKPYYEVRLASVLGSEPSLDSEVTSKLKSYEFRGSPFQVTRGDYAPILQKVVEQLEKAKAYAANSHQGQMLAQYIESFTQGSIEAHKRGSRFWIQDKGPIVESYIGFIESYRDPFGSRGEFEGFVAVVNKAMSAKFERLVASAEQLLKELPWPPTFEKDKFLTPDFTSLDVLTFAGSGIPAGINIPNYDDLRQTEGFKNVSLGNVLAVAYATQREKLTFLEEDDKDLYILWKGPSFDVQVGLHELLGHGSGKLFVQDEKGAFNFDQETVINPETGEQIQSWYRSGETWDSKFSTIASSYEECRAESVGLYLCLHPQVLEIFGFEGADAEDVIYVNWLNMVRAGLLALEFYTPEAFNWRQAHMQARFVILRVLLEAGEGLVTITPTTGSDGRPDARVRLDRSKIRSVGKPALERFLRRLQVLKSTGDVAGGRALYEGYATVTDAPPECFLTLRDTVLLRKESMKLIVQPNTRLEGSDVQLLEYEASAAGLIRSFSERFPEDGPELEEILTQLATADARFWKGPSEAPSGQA
Protocol: (§1) Human DPP3 wild-type (WT) and variants R669A and R669M were expressed in E. coli and purified using IMAC, as described in detail recently. Briefly, variants were prepared using a QuikChange II site-directed mutagenesis kit (Agilent Technologies, Santa Clara, CA, USA) while following the manufacturer’s instructions, with the hDPP3 gene on a pET21a plasmid as template. Complementary primer pairs were ordered from Macrogen Europe (The Netherlands) with the following sequences:
(§2) Proteins were expressed in E. coli for approximately 20 h at 18 °C, shaken at 120 rpm, and paired with 0.25 mM IPTG as an expression inductor. Cell pellets were lysed with lysosyme and with sonication; the lysate was then purified with DNAse I and through centrifugation, and affinity chromatography was performed on a Rotigarose His/Ni column. Lysis, wash, and elution buffers contained imidazole at concentrations of 10 mM, 20 mM, and 300 mM, respectively, and all buffers contained 50 mM Tris pH = 8.0, 300 mM NaCl. Fractions were pooled based on protein concentration (determined by using a BioDrop microvolume spectrophotometer) and purity (assessed by SDS-PAGE), and they were desalted on a PD-10 column with 20 mM Tris-Cl buffer, pH = 7.5. Aliquots were frozen and stored at −80 °C.
(§3) Enzyme kinetics were measured using an Agilent Cary Eclipse fluorescence spectrophotometer (Agilent Technologies, Santa Clara, CA, USA) with Arg2-2NA as a substrate analog and fluorescent 2NA as the product of the peptidase reaction. The assay has been described in detail previously. Arg2-2NA and peptide in 20 mM Tris-Cl buffer pH = 7.4 were pre-incubated at 25 °C for 2 min before the reaction was started by adding the enzyme into the cuvette. Substrate concentrations ranged from 0.25 to 100 μM. The peptide (inhibitor) concentrations were chosen so the output could be easily measured. […] Three peptide concentrations were used for each peptide. The enzyme concentration was 1 nM in all measurements.

[2] = target: T2, Human DPP3 wild-type (WT) (Homo sapiens, UniProt Q9NY33); test: Inhibition of DPP III catalyzed hydrolysis of Arg2-2NA, wild-type enzyme; format: biochemical
T2 construct: made in house; host or cells: E. coli
T2 sequence (Q9NY33 1-737): T1 sequence (Q9NY33 1-737 R669M) with M669R
Protocol: as §1, §2, §3

Human DPP3 variant R669A [3] = target: T3, Human DPP3 variant R669A (Homo sapiens, UniProt Q9NY33, R669A); test: Inhibition of DPP III catalyzed hydrolysis of Arg2-2NA, R669A variant; format: biochemical
T3 construct: made in house; host or cells: E. coli
T3 sequence (Q9NY33 1-737 R669A): T1 sequence (Q9NY33 1-737 R669M) with M669A
Protocol: as §1, §2, §3

human DPP III (hDPP III) = tested on: human DPP III (hDPP III); set-up: method as in 2 sources, one per row (each row's own in cited_ref): ref 17 = [17]; PMID 35163780; doi:10.3390/ijms23031858; 17. Tomić A. Tomić S. Demystifying DPP III Catalyzed Peptide Hydrolysis—Computational Study of the Complete Catalytic Cycle of Human DPP III Catalyzed Tynorphin Hydrolysis Int. J. Mol. Sci. 2022 23 18 ||| ref 18 = [18]; PMID 36116590; doi:10.1016/j.ijbiomac.2022.09.119; 18. Karačić Z. Šupljika F. Tomić A. Brkljačić L. Paić A.T. Ćehić M. Tomić S. Neuropeptides, Substrates and Inhibitors of Human Dipeptidyl Peptidase III, Experimental and Computational Study—A New Subs; details: computational and experimental study of neuropeptides; cited from earlier work
Text: Despite the efforts of numerous scientists, knowledge about the role that DPP III might play in various physiological processes is still unclear. […] In this and in QM/MM studies ...

DPP III = details: human renal epithelial cells; cited from earlier work
Text: (§4) Dipeptidyl peptidase III (DPP III, EC 3.4.14.4) is a monozinc metallopeptidase that hydrolyzes dipeptides from the N-terminus of its substrates consisting of three or more amino acids. DPP III is the only member of the M49 metallopeptidase family and the only metalloenzyme among dipeptidyl peptidases. This two-domain exopeptidase is broadly distributed in human tissues, where it participates in the final stages of protein turnover.

Human DPP3 variant R669A [4] = target: T3, Human DPP3 variant R669A; test: Michaelis–Menten test for the hydrolysis of Arg2-2NA, R669A variant; format: biochemical; details: enzyme 1 nM, 20 mM Tris-Cl pH 7.4, 25 °C, best fit ± standard error
Protocol: as §1
as §2, with “Lysis, wash, and elution buffers contained imidazole at concentrations of 10 mM, 20 mM, and 300 mM, respectively, and all buffers contained 50 mM Tris pH = 8.0, 300 mM NaCl.” left out, “Aliquots were frozen and stored at −80 °C.” left out
(§5) Enzyme kinetics were measured using an Agilent Cary Eclipse fluorescence spectrophotometer (Agilent Technologies, Santa Clara, CA, USA) with Arg2-2NA as a substrate analog and fluorescent 2NA as the product of the peptidase reaction. […] The peptide (inhibitor) concentrations were chosen so the output could be easily measured. […]

[5] = target: T2, Human DPP3 wild-type (WT); test: Michaelis–Menten test for the hydrolysis of Arg2-2NA, wild-type enzyme; format: biochemical; details: enzyme 1 nM, 20 mM Tris-Cl pH 7.4, 25 °C, best fit ± standard error
Protocol: as §1
as §2, with “Lysis, wash, and elution buffers contained imidazole at concentrations of 10 mM, 20 mM, and 300 mM, respectively, and all buffers contained 50 mM Tris pH = 8.0, 300 mM NaCl.” left out, “Aliquots were frozen and stored at −80 °C.” left out
as §5

Human DPP3 variant R669M [6] = target: T1, Human DPP3 variant R669M; test: Michaelis–Menten test for the hydrolysis of Arg2-2NA, R669M variant; format: biochemical; details: enzyme 1 nM, 20 mM Tris-Cl pH 7.4, 25 °C, best fit ± standard error
Protocol: as §1
as §2, with “Lysis, wash, and elution buffers contained imidazole at concentrations of 10 mM, 20 mM, and 300 mM, respectively, and all buffers contained 50 mM Tris pH = 8.0, 300 mM NaCl.” left out, “Aliquots were frozen and stored at −80 °C.” left out
as §5

[7] = tested on: angiotensin II-infused hypertensive mice; details: cited from earlier work
Text: as §4

[8] = R669M hDPP III 1 nM, substrate Arg2-2NA 0.25–100 μM, 20 mM Tris-Cl pH 7.4, 25 °C, 2 min pre-incubation, fluorescence of 2NA, competitive inhibition, best fit ± standard error, tynorphin 1–5 μM, valorphin 0.75–11.2 μM
[9] = WT hDPP III 1 nM, substrate Arg2-2NA 0.25–100 μM, 20 mM Tris-Cl pH 7.4, 25 °C, 2 min pre-incubation, fluorescence of 2NA, competitive inhibition, best fit ± standard error, inhibitor tynorphin 1–50 nM, valorphin 15–150 nM
[10] = substrate 0.25–100 μM, fluorescence of 2NA

Molecule: VVYPW [tynorphin]
Ki (Human DPP3 variant R669M [1]; [8]): 102 ± 16 nM | Ki [2, 9]: 11.2 ± 0.8 nM | Ki (Human DPP3 variant R669A [3]): 328 ± 25 nM

Molecule: CC(C)C[C@H](NC(=O)[C@H](Cc1ccccc1)NC(=O)CNC(=O)CNC(=O)[C@@H](N)Cc1ccc(O)cc1)C(=O)O [Leu-enkephalin]
Ki (Human DPP3 variant R669M [1]): 58000 ± 7000 nM | effects of the R669M and R669A mutations on the Ki (Human DPP3 variant R669M [1]; R669M versus R669A): the same | Ki [2]: 10400 ± 1400 nM | Ki (Human DPP3 variant R669A [3]): 52000 ± 5300 nM

Molecule: β-casomorphin
in vitro substrate identification / substrate class with hDPP III (human DPP III (hDPP III)): in vitro substrates of hDPP III

Molecule: angiotensin (1–7): peptide degraded by DPP III in human renal epithelial cells (DRVYIHP; Angiotensin 1-7; UniProt P01019 25-31, looked up)
degradation by DPP III (DPP III): DPP III degrades angiotensin (1–7)

kcat (Human DPP3 variant R669A [4]): 2.24 ± 0.05 s⁻¹ | Km (Human DPP3 variant R669A [4]; [10]): 3.4 ± 0.3 µM | kcat [5]: 3.74 ± 0.07 s⁻¹ | Km [5, 10]: 7.8 ± 0.6 µM | kcat (Human DPP3 variant R669M [6]): 2.26 ± 0.03 s⁻¹ | Km (Human DPP3 variant R669M [6]; [10]): 2.8 ± 0.2 µM | effect of mutation of R669 to Ala or Met on inhibitory properties / binding (Human DPP3 variant R669A [3]; R669A or R669M versus WT, inhibitory assays): small
Molecule: Arg2-2NA

Molecule: VVYPWTQ [valorphin]
Ki (Human DPP3 variant R669M [1]; [8]): 406 ± 33 nM | Ki [2, 9]: 36.5 ± 2.9 nM | Ki (Human DPP3 variant R669A [3]): 1210 ± 224 nM

B1: DPP III: zinc exopeptidase (EC 3.4.14.4), M49 family (protein, UniProt Q9NY33 2-737, looked up)
Dipeptidyl peptidase 3: ADTQYILPNDIGVSSLDCREAFRLLSPTERLYAYHLSRAAWYGGLAVLLQTSPEAPYIYALLSRLFRAQDPDQLRQHALAEGLTEEEYQAFLVYAAGVYSNMGNYKSFGDTKFVPNLPKEKLERVILGSEAAQQHPEEVRGLWQTCGELMFSLEPRLRHLGLGKEGITTYFSGNCTMEDAKLAQDFLDSQNLSAYNTRLFKEVDGEGKPYYEVRLASVLGSEPSLDSEVTSKLKSYEFRGSPFQVTRGDYAPILQKVVEQLEKAKAYAANSHQGQMLAQYIESFTQGSIEAHKRGSRFWIQDKGPIVESYIGFIESYRDPFGSRGEFEGFVAVVNKAMSAKFERLVASAEQLLKELPWPPTFEKDKFLTPDFTSLDVLTFAGSGIPAGINIPNYDDLRQTEGFKNVSLGNVLAVAYATQREKLTFLEEDDKDLYILWKGPSFDVQVGLHELLGHGSGKLFVQDEKGAFNFDQETVINPETGEQIQSWYRSGETWDSKFSTIASSYEECRAESVGLYLCLHPQVLEIFGFEGADAEDVIYVNWLNMVRAGLLALEFYTPEAFNWRQAHMQARFVILRVLLEAGEGLVTITPTTGSDGRPDARVRLDRSKIRSVGKPALERFLRRLQVLKSTGDVAGGRALYEGYATVTDAPPECFLTLRDTVLLRKESRKLIVQPNTRLEGSDVQLLEYEASAAGLIRSFSERFPEDGPELEEILTQLATADARFWKGPSEAPSGQA
blood pressure [7]: lowering blood pressure
